Like-named read-outs stand apart in the source and are kept apart here. Marks after values point to notes of the source that are not given here. Peptide text beside a SMILES is read from it. * marks the point of attachment. 5FAM = O=C1OC2(c3ccc(O)cc3Oc3cc(O)ccc32)c2ccc(C(=O)*)cc21

For data set [1] the following is noted: FAM alone, trans-corneal; cited from earlier work. The text has this: Finally, also the propensity of CPPs to enter corneal epithelium and endothelium cells should be considered.
The nature of data set [2]: Ex vivo trans-corneal permeation, Franz-type diffusion cells. In kind it is in vitro ADME, pig. Particulars: ex vivo porcine cornea, area 0.2 cm^2, 37 °C, 6 h, fluorescence 485/535 nm, mean ± sd. On the procedure: (§1) Permeation experiments across freshly porcine cornea were performed following a method previously reported. In detail, transparent porcine corneas were isolated from fresh pig eyes (breed: Large White and Landrace; weight: 145–190 kg; age: 10–11 months; sex: female and male; Macello Annoni SpA, Busseto, Italy) and supported by glass Franz-type diffusion cells, having a permeation area of 0.2 cm^2. The epithelial side was in contact with the donor, i.e., 200 µL of aqueous solution containing a peptide: each concentration and solvent are indicated in Table 2. Donor concentrations were selected based on different solubility and analytical sensitivity (see paragraph 2.4 and Table S2). For some peptides, the solubilization was improved by dissolving the raw material using small amount of DMSO (final concentration less than 5% v/v), and then PBS or PBS+0.1% BSA were alternately added.
To fill the receptor compartment, around 4 mL of degassed PBS or PBS+0.1% BSA was used (see Table 2), being kept at 37 °C and maintained under magnetic stirring to avoid any boundary layer effect. The presence of 0.1% BSA aids in preventing peptides aggregation. Permeation experiments lasted 6 h, and for quantification purposes, 200 µL of the receiving solution were collected every hour and reintegrated with fresh medium. Each condition was replicated between 3 and 4 times, using cornea isolated from different animals.
Permeation samples were analysed without preliminary separation by fluorescence, using a Spark 10M microplate reader (Tecan Trading AG, Switzerland); excitation and emission wavelengths were 485 nm and 535 nm, respectively. Standard solutions were prepared in PBS pH 7.4 or in PBS containing BSA 0.1%. RSD% (relative standard deviation %) was lower than 10%, while ER% (relative error %) resulted lower than 15%.
The amount of CPP permeated across the cornea (nmol/cm^2) is plotted against time (hour): the slope of the regression line at steady state represents the trans-corneal flux J (nmol/cm^2 h). The apparent permeability coefficient Papp (cm/s) is then calculated as Equation (1): Papp = J/c(1) being c (µM) the concentration of the donor solution. Papp allows for a direct comparison among permeants studied using different donor concentrations.

Data set [3] is described as follows: Aqueous solubility / precipitation of donor solutions (observation). In kind it is physicochemical. Particulars: for solubilization of donor solution: 250 µM, PBS pH 7.4; for solubility in aqueous medium: fluorescein (FL) as cargo, not used in ex vivo permeation experiments. On the procedure:
as §1
We have also analysed if the sequence reciprocity (GG vs. R) plays a role in the diffusivity of the peptide across the cornea and we found no difference between most of the paired sequences, namely PNT-GG 2 vs. PNT-R 4, PNT-GG 3 vs. PNT-R 3, PNT-GG 4 vs. PNT-R 2, PNT-GG 5 vs. PNT-R 1 (Figure 3b). This confirms that the sequence is only one of the factors affecting the translocation: in fact, even CPP concentration, type of cells, and cargo can strongly influence CPP final behavior/activity. […] Differently, the presence of FAM, a more hydrophilic fluorescent probe, allowed for aqueous solutions ranging in concentration from 25 to 250 µM (Table 2).

Setting [4] is: donor 100 µM, 200 µL, donor and receiving solutions PBS+BSA 0.1% pH 7.4, n = 3.
Where [5] appears, read: donor 25 µM, 200 µL, donor and receiving solutions PBS pH 7.4, n = 4.
Where [6] appears, read: donor 250 µM, 200 µL, donor and receiving solutions PBS pH 7.4, n = 3-4.

Turning to 5(6)-Carboxyfluorescein [FAM], the “Papp (apparent permeability coefficient)” value in data set [1] is recorded as 0.29 ± 0.08 × 10^−6 cm/s.

Turning to `CSCC[C@H](NC(=O)[C@H](CCCNC(=N)N)NC(=O)[C@H](CCCNC(=N)N)NC(=O)[C@H](CC(N)=O)NC(=O)CNC(=O)CNC(=O)c1ccc2c(c1)C(=O)OC21c2ccc(O)cc2Oc2cc(O)ccc21)C(=O)N[C@@H](CCCCN)C(=O)N[C@@H](Cc1c[nH]c2ccccc12)C(=O)N[C@@H](CCCCN)C(=O)N[C@@H](CCCCN)C(N)=O` [PNT-GG 1] (5FAM-GGNRRMKWKK-NH2), the “Papp (apparent permeability coefficient)” value in data set [2] (epithelial side to donor, donor 100 µM, 200 µL, donor and receiving solutions PBS pH 7.4, hourly sampling, n = 3-4) is reported as 1.33 ± 0.11 × 10^−6 cm/s.

`CSCC[C@H](NC(=O)[C@H](CCCNC(=N)N)NC(=O)[C@H](CCCNC(=N)N)NC(=O)[C@H](CC(N)=O)NC(=O)[C@H](CCC(N)=O)NC(=O)[C@H](Cc1ccccc1)NC(=O)CNC(=O)CNC(=O)c1ccc2c(c1)C(=O)OC21c2ccc(O)cc2Oc2cc(O)ccc21)C(=O)N[C@@H](CCCCN)C(=O)N[C@@H](Cc1c[nH]c2ccccc12)C(N)=O` [PNT-GG 2] (5FAM-GGFQNRRMKW-NH2): the “Papp (apparent permeability coefficient)” value in data set [2] (setting [4]) is given as 0.55 ± 0.57 × 10^−6 cm/s.

For the compound `CC[C@H](C)[C@H](NC(=O)CNC(=O)CNC(=O)c1ccc2c(c1)C(=O)OC21c2ccc(O)cc2Oc2cc(O)ccc21)C(=O)N[C@@H](Cc1c[nH]c2ccccc12)C(=O)N[C@@H](Cc1ccccc1)C(=O)N[C@@H](CCC(N)=O)C(=O)N[C@@H](CC(N)=O)C(=O)N[C@@H](CCCNC(=N)N)C(=O)N[C@@H](CCCNC(=N)N)C(=O)N[C@@H](CCSC)C(N)=O` [PNT-GG 3] (5FAM-GGIWFQNRRM-NH2), the “Papp (apparent permeability coefficient)” value in data set [2] (setting [4]) is on record as 0.44 ± 0.50 × 10^−6 cm/s.

Take `CC[C@H](C)[C@H](NC(=O)CNC(=O)CNC(=O)c1ccc2c(c1)C(=O)OC21c2ccc(O)cc2Oc2cc(O)ccc21)C(=O)N[C@@H](CCCCN)C(=O)N[C@H](C(=O)N[C@@H](Cc1c[nH]c2ccccc12)C(=O)N[C@@H](Cc1ccccc1)C(=O)N[C@@H](CCC(N)=O)C(=O)N[C@@H](CC(N)=O)C(=O)N[C@@H](CCCNC(=N)N)C(N)=O)[C@@H](C)CC` [PNT-GG 4] (5FAM-GGIKIWFQNR-NH2): in data set [2] (setting [4]), the “Papp (apparent permeability coefficient)” value is given as 0.34 ± 0.14 × 10^−6 cm/s.

Turning to `CC[C@H](C)[C@H](NC(=O)[C@H](CCCCN)NC(=O)[C@@H](NC(=O)[C@H](CCC(N)=O)NC(=O)[C@H](CCCNC(=N)N)NC(=O)CNC(=O)CNC(=O)c1ccc2c(c1)C(=O)OC21c2ccc(O)cc2Oc2cc(O)ccc21)[C@@H](C)CC)C(=O)N[C@@H](Cc1c[nH]c2ccccc12)C(=O)N[C@@H](Cc1ccccc1)C(=O)N[C@@H](CCC(N)=O)C(N)=O` [PNT-GG 5] (5FAM-GGRQIKIWFQ-NH2), the “Papp (apparent permeability coefficient)” value is reported as 0.50 ± 0.70 ^d × 10^−6 cm/s in data set [2] (donor 100 µM in PBS pH 7.4, receiving solution PBS+BSA 0.1% pH 7.4, n = 3) and 0.24 ± 0.40 ^d × 10^−6 cm/s in data set [2] (setting [4]).

For the compound `CC[C@H](C)[C@H](NC(=O)[C@H](CCCCN)NC(=O)[C@@H](NC(=O)[C@H](CCC(N)=O)NC(=O)[C@H](CCCNC(=N)N)NC(=O)CNC(=O)CNC(=O)c1ccc2c(c1)C(=O)OC21c2ccc(O)cc2Oc2cc(O)ccc21)[C@@H](C)CC)C(=O)N[C@@H](Cc1c[nH]c2ccccc12)C(=O)N[C@@H](Cc1ccccc1)C(=O)N[C@@H](CCC(N)=O)C(=O)N[C@@H](CC(N)=O)C(=O)N[C@@H](CCCNC(=N)N)C(=O)N[C@@H](CCCNC(=N)N)C(=O)N[C@@H](CCSC)C(=O)N[C@@H](CCCCN)C(=O)N[C@@H](Cc1c[nH]c2ccccc12)C(=O)N[C@@H](CCCCN)C(=O)N[C@@H](CCCCN)C(N)=O` [PNT-GG], the “solubilization of donor solution” value in data set [3] is recorded as “complete solubilization”. In addition, the “Papp (apparent permeability coefficient)” value in data set [2] (setting [5]) is listed as 4.41 ± 2.93 × 10^−6 cm/s.

As for `CC[C@H](C)[C@H](NC(=O)[C@H](CCCCN)NC(=O)[C@@H](NC(=O)[C@H](Cc1c[nH]c2ccccc12)NC(=O)[C@H](Cc1ccccc1)NC(=O)[C@H](CCC(N)=O)NC(=O)CNC(=O)CNC(=O)c1ccc2c(c1)C(=O)OC21c2ccc(O)cc2Oc2cc(O)ccc21)[C@@H](C)CC)C(=O)N[C@@H](CCC(N)=O)C(=O)N[C@@H](CCCNC(=N)N)C(N)=O` [PNT-R 1] (5FAM-GGQFWIKIQR-NH2), in data set [2] (setting [6]), the “Papp (apparent permeability coefficient)” value is recorded as 0.93 ± 0.53 × 10^−6 cm/s.

With `CC[C@H](C)[C@H](NC(=O)[C@H](CCCCN)NC(=O)[C@@H](NC(=O)[C@H](Cc1c[nH]c2ccccc12)NC(=O)[C@H](Cc1ccccc1)NC(=O)[C@H](CCC(N)=O)NC(=O)[C@H](CC(N)=O)NC(=O)[C@H](CCCNC(=N)N)NC(=O)CNC(=O)CNC(=O)c1ccc2c(c1)C(=O)OC21c2ccc(O)cc2Oc2cc(O)ccc21)[C@@H](C)CC)C(N)=O` [PNT-R 2] (5FAM-GGRNQFWIKI-NH2), the “Papp (apparent permeability coefficient)” value in data set [2] (setting [6]) is on record as 0.23 ± 0.16 × 10^−6 cm/s.

Take `CC[C@H](C)[C@H](NC(=O)[C@H](Cc1c[nH]c2ccccc12)NC(=O)[C@H](Cc1ccccc1)NC(=O)[C@H](CCC(N)=O)NC(=O)[C@H](CC(N)=O)NC(=O)[C@H](CCCNC(=N)N)NC(=O)[C@H](CCCNC(=N)N)NC(=O)[C@H](CCSC)NC(=O)CNC(=O)CNC(=O)c1ccc2c(c1)C(=O)OC21c2ccc(O)cc2Oc2cc(O)ccc21)C(N)=O` [PNT-R 3] (5FAM-GGMRRNQFWI-NH2): in data set [2] (setting [6]), the “Papp (apparent permeability coefficient)” value is listed as 0.002 ± 0.004 × 10^−6 cm/s.

With `CSCC[C@H](NC(=O)[C@H](CCCCN)NC(=O)[C@H](Cc1c[nH]c2ccccc12)NC(=O)CNC(=O)CNC(=O)c1ccc2c(c1)C(=O)OC21c2ccc(O)cc2Oc2cc(O)ccc21)C(=O)N[C@@H](CCCNC(=N)N)C(=O)N[C@@H](CCCNC(=N)N)C(=O)N[C@@H](CC(N)=O)C(=O)N[C@@H](CCC(N)=O)C(=O)N[C@@H](Cc1ccccc1)C(N)=O` [PNT-R 4] (5FAM-GGWKMRRNQF-NH2), the “Papp (apparent permeability coefficient)” value in data set [2] (setting [6]) is 0.13 ± 0.07 × 10^−6 cm/s.

For `CSCC[C@H](NC(=O)[C@H](CCCCN)NC(=O)[C@H](Cc1c[nH]c2ccccc12)NC(=O)[C@H](CCCCN)NC(=O)[C@H](CCCCN)NC(=O)CNC(=O)CNC(=O)c1ccc2c(c1)C(=O)OC21c2ccc(O)cc2Oc2cc(O)ccc21)C(=O)N[C@@H](CCCNC(=N)N)C(=O)N[C@@H](CCCNC(=N)N)C(=O)N[C@@H](CC(N)=O)C(N)=O` [PNT-R 5] (5FAM-GGKKWKMRRN-NH2), in data set [2] (setting [6]), the “Papp (apparent permeability coefficient)” value was 0.05 ± 0.01 × 10^−6 cm/s.

On to `CC[C@H](C)[C@H](NC(=O)[C@H](CCCCN)NC(=O)[C@@H](NC(=O)[C@H](Cc1c[nH]c2ccccc12)NC(=O)[C@H](Cc1ccccc1)NC(=O)[C@H](CCC(N)=O)NC(=O)[C@H](CC(N)=O)NC(=O)[C@H](CCCNC(=N)N)NC(=O)[C@H](CCCNC(=N)N)NC(=O)[C@H](CCSC)NC(=O)[C@H](CCCCN)NC(=O)[C@H](Cc1c[nH]c2ccccc12)NC(=O)[C@H](CCCCN)NC(=O)[C@H](CCCCN)NC(=O)CNC(=O)CNC(=O)c1ccc2c(c1)C(=O)OC21c2ccc(O)cc2Oc2cc(O)ccc21)[C@@H](C)CC)C(=O)N[C@@H](CCC(N)=O)C(=O)N[C@@H](CCCNC(=N)N)C(N)=O` [PNT-R] (5FAM-GGKKWKMRRNQFWIKIQR-NH2), for which the “solubilization of donor solution” value in data set [3] is on record as “complete solubilization”. The “Papp (apparent permeability coefficient)” value in data set [2] (setting [5]) is 7.08 ± 6.66 × 10^−6 cm/s.

For the compound “FL-GG-KKWKMRRNQFWIKIQR [PNT-R-FL, fluorescein-GG-labelled reversed penetratin, C-terminal amide]”, the “solubility in aqueous medium” value in data set [3] is “poorly soluble”.

Take “FL-GG-WKMRRNQF [PNT-R-4-FL, fluorescein-GG-labelled analogue of PNT-R 4, C-terminal amide]”: in data set [3], the “solubility in aqueous medium” value was “poorly soluble”.

Values taken from publication PMC7466059, “Synthesis and Ex Vivo Trans-Corneal Permeation of Penetratin Analogues as Ophthalmic Carriers: Preliminary Results” (Pharmaceutics, 2020).
